# Data reported in US9546200B2, “Peptide for protection of allergic respiratory disorders” (Board of Supervisors of Louisiana State University and …, priority 2011, dated 2017).
# Residues, ends and D or L forms follow the SMILES beside them.
# Test system: foals
# Set-up: species or system horse
# Details: in vivo
# Description: Two days before the injection of the peptide-1, a foal along with the mare was brought from the pasture to a bedded stall of the LSU School of Veterinary Medicine. They were fed hay and concentrated horse chow (Horse Chow #200^R, Purina Mills, St. Louis, Mo.); water was provided ad libitum. A physical examination was conducted on the day of injection. The foal's body temperature, heart rate, respiratory rate, body weight, body score, sex, breed, age and general physical conditions were recorded. After the physical examination, 5 ml of blood was drawn from jugular vein to determine pre-immune antibody titer (control value) and CBC.
# Since the peptide-1 has not been tried in any animals, the first foal was used to test the injection method and dosage. A low dose of 0.1 mg/kg body weight of conjugated peptide-1 with KLH was used, but without an adjuvant to minimize any adverse reactions due to either a high dose of peptide-1 or adjuvant. This protocol allowed a determination of any reaction due to the conjugated peptide-1 alone. A subcutaneous route of administration was chosen to produce a consistent “slow and steady” absorption. The first injection was given on the left side of the neck after cleaning with alcohol. […] After the injection, 5 ml blood was collected weekly. A booster injection with the same dose and route was given on the right side of the neck on the 15th day following the initial injection. Weekly blood collections continued for 42 days. […] For the remaining foals, a new protocol was used in that an adjuvant was added to the injection and the booster injection was given on the 28th day after the initial injection.
# Immediately after injection (either the first injection or the booster), a small swelling (size 1″×0.5″) at the site of injection was observed. The foal was observed continuously for the first hour and later every hour for eight hours. The foal evinced pain upon touch at the injection site, but it was eating, nursing, and drinking within 15 minutes after injection. […] No sweating, fever, cough, seizure or difficulty in breathing was observed.
# The foal remained under close observation for another two days, when the swelling began to subside. On the third day, foal and mare were allowed to go to the pasture. A similar swelling occurred at the booster injection time also. Therefore, in the animal protocol, foals would be kept in the bedded stall with the mare for a week after injection to observe the foals closely. In addition, the protocol demanded that if the swollen area is more than 2.5″ in diameter and more than 0.5″ in thickness, hot water packs are to be applied to relieve pain and swelling. Veterinary medical care is to be consulted if the condition worsens. After one week in the stall, the Foal #2 was let out to pasture and continued to do well for the remainder of the experimental period of 57 days.
# The basic protocol is as described for Foal #2. However, before injecting the peptide, extra care was taken in cleaning the injection site by scrubbing the site with Septisol antiseptic foam (Septisol^R, Steris Corp., Ohio) and alcohol. […] There was a small swelling in this foal which lasted only for 24 hours, probably due to the adjuvant. The adjuvant has an oily consistency, which would facilitate slow absorption of the injected solution.
smiles,measurement,setting,value
CC[C@H](C)[C@H](NC(=O)[C@H](CCCCN)NC(=O)[C@H](CC(=O)O)NC(=O)[C@H](CCSC)NC(=O)[C@H](CC(C)C)NC(=O)[C@H](CCCCN)NC(=O)[C@H](CC(C)C)NC(=O)[C@@H](NC(=O)[C@H](CO)NC(=O)[C@H](CC(=O)O)NC(=O)[C@H](CCCCN)NC(=O)[C@@H](NC(=O)[C@H](CC(N)=O)NC(=O)[C@@H](N)CCCCN)[C@@H](C)O)[C@@H](C)CC)C(=O)N[C@@H](C)C(=O)N[C@@H](CCCCN)C(=O)N[C@@H](CO)C(=O)N1CCC[C@H]1C(=O)N[C@@H](CC(C)C)C(=O)N[C@@H](CS)C(=O)N[C@@H](C)C(=O)O [Peptide-1] (H-KNTKDSILKLMDKIAKSPLCA-OH),area of swelling at the injection site,,2.5″×2″
same,size of swelling at the site of injection,,1″×0.5″
same,thickness of swelling at the injection site,,0.5 ″
same,duration of swelling,"sc, 0.1 mg/kg",24 h
same,other adverse reaction,"sc, 0.1 mg/kg",no other adverse reaction
